Measurements as given in paper PMC7918738, “Microtubule Destabilizing Sulfonamides as an Alternative to Taxane-Based Chemotherapy” (International Journal of Molecular Sciences, 2021).
In brackets after ≈: the same amount, converted by molar mass.

What was measured:
[1] = system: HT-29 (colon adenocarcinoma); experiment: Antiproliferative activity against CA-4-resistant HT-29 with or without verapamil (sensitivity to MDR pumps, XTT); assay type: cell-based, human; conditions: verapamil alone at 10 µM
From the text: Detecting changes in drug potency when inhibiting MDR-mediated efflux reflect that these transporters reduce the intracellular drug concentration. HT-29 has been reported to express moderate levels of MDR1, accounting for a resistant phenotype. A comparison of the antiproliferative IC50 values of each MDS in the presence or absence of verapamil provides an estimate of the susceptibility of each compound to efflux pumps.
(§1) MCF7 (human breast carcinoma), SKOV-3 (human ovarian carcinoma), OVCAR-3 (human ovarian carcinoma), OVCAR-8 (human ovarian carcinoma), and HeLa (human cervical carcinoma) cell lines were cultured in Dulbecco’s Modified Eagle’s Medium (DMEM) (Gibco, Thermo Fischer Scientific) containing 10% (v/v) heat-inactivated fetal bovine serum (HIFBS) (Lonza-Cambrex, Karlskoga, Sweden), 2 mM L-glutamine (Lonza-Cambrex, Karlskoga, Sweden), 100 μg/mL streptomycin, and 100 IU/mL penicillin (Lonza-Cambrex) at 37 °C in humidified 95% air and 5% CO2. HT-29 (human colon carcinoma), IGROV-1 (human ovarian carcinoma), and A2780 (human ovarian carcinoma) cell lines were cultured in RPMI 1640 medium (Gibco, Thermo Fischer Scientific) supplemented with 10% HIFBS, 100 μg/mL streptomycin, and 100 IU/mL penicillin at 37 °C in humidified 95% air and 5% CO2 atmosphere. The presence of mycoplasma was routinely checked with MycoAlert kit (Lonza-Cambrex) and only mycoplasma-free cells were used in the experiments. Ovarian tumor cell lines were originally acquired from Dr Atanasio Pandiella from Centro de Investigación del Cáncer (CIC), Salamanca, Spain. HeLa, HT-29 and MCF7 tumor cell lines were provided by Dr Faustino Mollinedo from Centro de Investigaciones Biológicas Margarita Salas, Madrid, Spain.
MCF7, HeLa, and HT-29 cell proliferation, when treated with the corresponding compounds, were determined using the XTT (sodium 3’-[1(phenylaminocarbonyl)-3,4-tetrazolium]-bis(4-methoxy-6-nitro)-benzenesulfonic acid hydrate) cell proliferation kit (Roche Molecular Biochemicals, Mannheim, Germany). A freshly prepared mixture of XTT labeling reagent with 0.02% (v/v) PMS (N-methyl-dibenzopyrazine methyl sulfate) electron coupling reagent was added to cells (50 µL/well in 96-well plates, total volume of 160 µL/well). Cells were incubated under standard culture conditions for 4 h (MCF7 and HeLa) or 6 h (HT-29). The absorbance of the formazan product generated was measured at 450 nm using a multi-well plate reader. SKOV-3, OVCAR-3, OVCAR-8, IGROV-1, A-2780 cell proliferation, when treated with the corresponding compound, were determined using MTT (3-(4,5-dimethylthiazol-2-yl)-2,5-diphenyl-2H-tetrazolium bromide) (Sigma-Aldrich, St. Louis, MO, USA). MTT in Phosphate Buffer Saline (PBS) (5 mg/ml) was added to cells (110 µL/well in 24-well plates, total volume of 1110 µL/well). After 1 hour of incubation, the medium was aspirated, and formazan violet crystals were dissolved in dimethyl sulfoxide (DMSO) (500 µL/well). Absorbance was measured at 570 nm in a plate reader (Ultra Evolution, Tecan, Männedorf, Suiza). To determine cell viability, cells in exponential growth phase were seeded (100 µL/well in 96-well plates and 1000 µL/well in 24-well plates) with appropriate cell line concentration (1.5·10^4 cells/mL for MCF7 and HeLa, 3·10^4 cells/mL for HT-29, and 1·10^4 cells/mL for SKOV-3, OVCAR-3, OVCAR-8, IGROV-1, and A-2780) in complete RPMI 1640 or DMEM medium at 37°C and 5% CO2 atmosphere. After 24 h incubation, to allow cells to attach to the plates, all compounds were added at 1 µM concentration and the effect on the proliferation was evaluated 72 h post-treatment. […] Non-linear curves fitting the experimental data were carried out for each compound. Compounds were dissolved in DMSO and the final solvent concentrations never exceeded 0.5% (v/v). The control wells included […] with 0.5% (v/v) DMSO and the positive control. 10 µM verapamil was included as a control for the HT-29 cell line.

[2] = system: tubulin (microtubular protein isolated from calf brain); experiment: Tubulin Polymerization Inhibition (TPI) assay, turbidity; assay type: biochemical; conditions: 1.5 mg/mL microtubular protein
Description: The effect of all the synthesized compounds on the in vitro tubulin polymerization was evaluated at 10 µM. All the compounds that inhibited polymerization more than 30% were also assayed at 20 µM. IC50 values were calculated for those compounds inhibiting tubulin polymerization by at least 50% at 20 µM (Table 1 and Supplemental Figure S2).
Microtubular protein was isolated from calf brain according to the modified Shelanski method by two cycles of temperature-dependent assembly/disassembly and stored at −80 °C. Before each use, protein concentration was determined by the Bradford method taking BSA as standard.
Tubulin polymerization was monitored using a Helios α spectrophotometer by measuring the increase in turbidity at 450 nm, caused by a shift from 4 °C to 37 °C, which allows the in vitro microtubular protein to depolymerize and polymerize, respectively. The assay was carried out in quartz cuvettes containing 1.5 mg/mL microtubular protein and the ligand (except for control cuvette with only DMSO at the same concentration) in a mixture of 0.1 M MES buffer, 1 mM EGTA, 1 mM MgCl2, 1 mM β-ME, and 1.5 mM GTP at pH 6.7 (final volume 500 µL). Cuvettes were preincubated at 20 °C for 30 min, to allow ligand binding to tubulin, and subsequently cooled on ice for 10 min. Then, the experiment starts at 4 °C to establish the initial baseline. The assembly process was initiated by a temperature shift to 37 °C and the turbidity produced by tubulin polymerization can be measured by an absorbance increase. After reaching a stable plateau, the temperature was switched back to 4 °C to return to the initial absorption values (to confirm the reversible nature of the monitored process and to determine whether or not the microtubular tubular protein has stabilized). The difference in amplitude between the stable plateau and the initial baseline of the curves was taken as the degree of tubulin polymerization for each experiment. Comparison with control curves under identical conditions but without ligands yielded TPI as a percentage value. All compounds were tested at 10 µM concentration. Compounds that inhibited tubulin polymerization by at least 30% at 10 µM were tested at 20 µM. IC50 values were calculated for compounds that inhibit tubulin polymerization by more than 50% at 20 µM. Compounds were dissolved in DMSO, and the final solvent concentration never exceeded 4% (v/v), which has been reported not to interfere with the assembly process. All the measurements were carried out in at least two independent experiments using microtubular protein from different preparations.

[3] = Aqueous solubility, saturation shake-flask method, UV absorbance; conditions: pH 7, aqueous buffer, thermodynamic from solid
Description: UV absorbance at three maximum absorbance wavelengths of selected compounds was measured after 48 h shaking and subsequent microfiltration.
The aqueous solubility of the sulfonamides was determined using an approach based on the saturation shake-flask method. Tested compounds (1–2 mg) were stirred in pH 7.0 phosphate buffer (300 µL) for 48 h at room temperature. The resulting suspension was filtered over a 45 µm filter to discard insoluble residues, and the concentration in the supernatant was measured by UV absorbance. To determine the concentration, a scan between 270 and 400 nm was performed in a Helios-α UV-320 Spectrophotometer (Thermo-Spectronic, Thermo Fischer Scientific, Waltham, MA, USA) for each tested compound. Then, three maximum wavelengths of absorbance per compound were selected from the previous scan and calibration curves were performed at these three wavelengths. Solubility results are given as the average of the three measurements.

[4] = system: HeLa (cervix epithelioid carcinoma); experiment: Antiproliferative activity against HeLa (XTT colorimetric method); assay type: cell-based; conditions: Homo sapiens, 72 h treatment
Description: (§2) The in vitro antiproliferative activity of MDS at 1 µM after 72 h treatments was evaluated by a colorimetric method against the human tumor cell lines HeLa (cervix epithelioid carcinoma) and MCF7 (breast adenocarcinoma). Compounds showing more than 40% inhibition at 1 µM in at least three independent assays were evaluated in a range of concentrations between 0.1 nM and 10 µM for the determination of half-maximal inhibitory concentrations (IC50) (Table 1). Paclitaxel, CA-4, and ABT-751 were used as references.
as §1
(§3) MCF7, HeLa, and HT-29 cell proliferation, when treated with the corresponding compounds, were determined using the XTT (sodium 3’-[1(phenylaminocarbonyl)-3,4-tetrazolium]-bis(4-methoxy-6-nitro)-benzenesulfonic acid hydrate) cell proliferation kit (Roche Molecular Biochemicals, Mannheim, Germany). A freshly prepared mixture of XTT labeling reagent with 0.02% (v/v) PMS (N-methyl-dibenzopyrazine methyl sulfate) electron coupling reagent was added to cells (50 µL/well in 96-well plates, total volume of 160 µL/well). Cells were incubated under standard culture conditions for 4 h (MCF7 and HeLa) or 6 h (HT-29). The absorbance of the formazan product generated was measured at 450 nm using a multi-well plate reader. SKOV-3, OVCAR-3, OVCAR-8, IGROV-1, A-2780 cell proliferation, when treated with the corresponding compound, were determined using MTT (3-(4,5-dimethylthiazol-2-yl)-2,5-diphenyl-2H-tetrazolium bromide) (Sigma-Aldrich, St. Louis, MO, USA). MTT in Phosphate Buffer Saline (PBS) (5 mg/ml) was added to cells (110 µL/well in 24-well plates, total volume of 1110 µL/well). After 1 hour of incubation, the medium was aspirated, and formazan violet crystals were dissolved in dimethyl sulfoxide (DMSO) (500 µL/well). Absorbance was measured at 570 nm in a plate reader (Ultra Evolution, Tecan, Männedorf, Suiza). To determine cell viability, cells in exponential growth phase were seeded (100 µL/well in 96-well plates and 1000 µL/well in 24-well plates) with appropriate cell line concentration (1.5·10^4 cells/mL for MCF7 and HeLa, 3·10^4 cells/mL for HT-29, and 1·10^4 cells/mL for SKOV-3, OVCAR-3, OVCAR-8, IGROV-1, and A-2780) in complete RPMI 1640 or DMEM medium at 37°C and 5% CO2 atmosphere. After 24 h incubation, to allow cells to attach to the plates, all compounds were added at 1 µM concentration and the effect on the proliferation was evaluated 72 h post-treatment. Compounds showing antiproliferative effects at tested concentration were selected for IC50 calculation (50% inhibitory concentration with respect to the untreated controls) from 10^−5 to 10^−10 M concentration. Non-linear curves fitting the experimental data were carried out for each compound. […]

[5] = system: MCF7 (breast adenocarcinoma); experiment: Antiproliferative activity against MCF7 (XTT colorimetric method); assay type: cell-based; conditions: Homo sapiens, 72 h treatment
Description: as §2, §1, §3

COc1ccc(CCN(C)CCCC(C#N)(c2ccc(OC)c(OC)c2)C(C)C)cc1OC (stereo not drawn) [verapamil, reference compound]
Effect on HT-29 cell proliferation [1]: did not affect cell proliferation

COc1ccc(S(=O)(=O)Nc2cccnc2Nc2ccc(O)cc2)cc1 [ABT-751, reference compound]
IC50 [2]: 4.4 µM | TPI % 10 µM ([2]; compound at 10 µM): 69% | solubility at 48 h [3]: 40 µg/mL (≈ 108 µM) | IC50 [4]: 388 nM | IC50 [5]: 180 nM
